Results on 7 compounds are retold here after article PMC3961306, “Comparison of the Cancer Gene Targeting and Biochemical Selectivities of All Targeted Kinase Inhibitors Approved for Clinical Use” (PLoS ONE, 2014).

Read-outs that look alike come from different tables or passages of the source.

Holding throughout (assay): Kinase profiling in a biochemical assay panel (mobility shift assays and ELISA), %-inhibition at 1 μM; selectivity entropy
(An ELISA detects its analyte on a solid surface through an enzyme-linked reagent.)

The target of test [1] is panel of more than 300 wild-type and mutant kinases (313 kinase panel) (Homo sapiens, UniProt P05771). Conditions: kinase PKCβ1; 1 μM.
Test [2] concerns the target T1, panel of more than 300 wild-type and mutant kinases (313 kinase panel) (Homo sapiens, UniProt P54762).
T1 sequence (P54762 18-984): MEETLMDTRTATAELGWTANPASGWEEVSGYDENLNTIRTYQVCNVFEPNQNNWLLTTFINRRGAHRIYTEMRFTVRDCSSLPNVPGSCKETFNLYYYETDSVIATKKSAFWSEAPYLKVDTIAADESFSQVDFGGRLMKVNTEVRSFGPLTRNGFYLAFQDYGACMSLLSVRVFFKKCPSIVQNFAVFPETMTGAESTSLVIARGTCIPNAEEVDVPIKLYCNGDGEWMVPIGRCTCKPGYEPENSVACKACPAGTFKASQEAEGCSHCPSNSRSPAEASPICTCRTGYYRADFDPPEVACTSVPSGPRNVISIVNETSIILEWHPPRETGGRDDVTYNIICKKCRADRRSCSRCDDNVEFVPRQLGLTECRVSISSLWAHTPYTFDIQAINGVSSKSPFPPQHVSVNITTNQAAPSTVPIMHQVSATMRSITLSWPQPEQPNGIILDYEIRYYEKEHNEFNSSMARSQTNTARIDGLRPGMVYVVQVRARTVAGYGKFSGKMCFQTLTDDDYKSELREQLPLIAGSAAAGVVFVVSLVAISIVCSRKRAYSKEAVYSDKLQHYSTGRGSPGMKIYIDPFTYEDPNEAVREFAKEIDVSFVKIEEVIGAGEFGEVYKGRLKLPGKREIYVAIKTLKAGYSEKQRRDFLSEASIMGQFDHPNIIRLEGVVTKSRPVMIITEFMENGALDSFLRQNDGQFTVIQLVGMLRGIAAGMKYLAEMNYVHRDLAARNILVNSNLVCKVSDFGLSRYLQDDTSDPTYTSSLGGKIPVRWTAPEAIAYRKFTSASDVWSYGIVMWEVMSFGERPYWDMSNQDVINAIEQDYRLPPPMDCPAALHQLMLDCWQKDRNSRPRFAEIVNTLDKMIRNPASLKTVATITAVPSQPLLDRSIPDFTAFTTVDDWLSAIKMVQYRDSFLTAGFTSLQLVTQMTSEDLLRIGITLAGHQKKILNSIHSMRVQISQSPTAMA

Test [3] addresses panel of more than 300 wild-type and mutant kinases (313 kinase panel) (Homo sapiens, UniProt Q02779). Conditions: kinase MLK2; 1 μM.
Test [4] addresses T2, panel of more than 300 wild-type and mutant kinases (313 kinase panel) (Homo sapiens, UniProt Q13976).
T2 sequence (Q13976 1-671): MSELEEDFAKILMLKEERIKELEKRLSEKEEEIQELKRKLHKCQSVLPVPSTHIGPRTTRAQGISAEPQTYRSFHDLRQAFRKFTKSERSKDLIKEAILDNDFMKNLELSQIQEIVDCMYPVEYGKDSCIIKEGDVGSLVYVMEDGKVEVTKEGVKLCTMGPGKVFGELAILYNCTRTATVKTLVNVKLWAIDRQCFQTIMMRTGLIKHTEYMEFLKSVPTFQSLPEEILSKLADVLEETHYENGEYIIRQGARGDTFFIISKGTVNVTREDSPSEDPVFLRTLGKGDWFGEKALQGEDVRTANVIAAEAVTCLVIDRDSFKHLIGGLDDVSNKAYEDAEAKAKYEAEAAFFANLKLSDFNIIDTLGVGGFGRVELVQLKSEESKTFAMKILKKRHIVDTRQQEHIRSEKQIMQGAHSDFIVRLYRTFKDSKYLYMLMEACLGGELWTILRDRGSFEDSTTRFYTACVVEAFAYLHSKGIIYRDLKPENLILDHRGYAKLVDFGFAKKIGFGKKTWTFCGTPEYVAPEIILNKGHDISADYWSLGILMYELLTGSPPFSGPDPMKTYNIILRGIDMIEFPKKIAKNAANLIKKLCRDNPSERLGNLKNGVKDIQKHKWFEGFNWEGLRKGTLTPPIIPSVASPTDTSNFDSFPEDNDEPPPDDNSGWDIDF
Conditions: kinase PGK; 1 μM.

The target of test [5] is panel of more than 300 wild-type and mutant kinases (313 kinase panel) (Homo sapiens, UniProt Q15349). The following applies: kinase RSK3; 1 μM.
Test [6] relates to panel of more than 300 wild-type and mutant kinases (313 kinase panel).
Setting [7] is: kinase EGFR(d746-750), compound at 1 μM.
[8] abbreviates: kinase EGFR(d746-750/T790M), compound at 1 μM.
The mark [9] stands for this setting: kinase EML4-ALK, compound at 1 μM.

panel of more than 300 wild-type and mutant kinases (313 kinase panel) (Homo sapiens, UniProt Q02779), sequence (Q02779 whole entry, change not shown): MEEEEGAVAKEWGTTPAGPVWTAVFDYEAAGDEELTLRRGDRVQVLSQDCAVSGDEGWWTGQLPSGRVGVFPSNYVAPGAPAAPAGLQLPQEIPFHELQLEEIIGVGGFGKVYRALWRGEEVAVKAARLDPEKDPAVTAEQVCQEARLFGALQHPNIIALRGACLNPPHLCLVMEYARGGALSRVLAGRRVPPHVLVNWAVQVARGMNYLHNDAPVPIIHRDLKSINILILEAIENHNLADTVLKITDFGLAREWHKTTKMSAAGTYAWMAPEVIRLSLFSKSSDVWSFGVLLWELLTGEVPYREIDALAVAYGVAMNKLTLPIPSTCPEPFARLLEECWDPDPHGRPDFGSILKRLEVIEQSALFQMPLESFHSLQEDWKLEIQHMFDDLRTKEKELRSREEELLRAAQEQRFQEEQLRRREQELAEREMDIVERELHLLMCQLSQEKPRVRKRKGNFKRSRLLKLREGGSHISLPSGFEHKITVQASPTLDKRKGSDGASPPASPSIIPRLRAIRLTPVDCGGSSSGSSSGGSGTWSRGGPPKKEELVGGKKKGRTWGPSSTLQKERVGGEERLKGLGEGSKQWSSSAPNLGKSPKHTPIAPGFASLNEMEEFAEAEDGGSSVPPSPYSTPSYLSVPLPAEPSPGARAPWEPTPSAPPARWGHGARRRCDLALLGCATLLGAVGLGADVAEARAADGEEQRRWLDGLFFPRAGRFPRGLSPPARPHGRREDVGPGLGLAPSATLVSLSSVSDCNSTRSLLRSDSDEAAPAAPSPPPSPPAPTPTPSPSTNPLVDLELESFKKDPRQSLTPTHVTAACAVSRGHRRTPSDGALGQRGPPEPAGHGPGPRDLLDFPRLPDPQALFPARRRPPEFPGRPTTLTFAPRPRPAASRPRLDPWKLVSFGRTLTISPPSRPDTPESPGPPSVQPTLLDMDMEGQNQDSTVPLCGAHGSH

On to `Cc1ccc(Nc2nccc(N(C)c3ccc4c(C)n(C)nc4c3)n2)cc1S(N)(=O)=O` [pazopanib], for which the “%-inhibition of PKCβ1” value in test [1] is -4.7%. For the same compound, in test [2] (kinase EPHB1, compound at 1 μM), the “%-inhibition of EPHB1” value turned out to be 27%. Also, the “%-inhibition of MLK2” value in test [3] came to 18%. Moreover, in test [4], the “%-inhibition of PGK” value is -3%. In addition, the “%-inhibition of RSK3” value in test [5] came out at 7%. In test [6], the “%-inhibition of NPM1-ALK” value was found to be 21% and the “%-inhibition of TAK1-TAB1” value is -4.34%. Moreover, in test [6] (1 µM), the “%-inhibition of EML4-ALK” value was determined as 27%, the “%-inhibition of LYNb” value is recorded as 85%, the “%-inhibition of PKCβ2” value is reported as 4.55% and the “%-inhibition of SRM” value turned out to be 63%.
With `CNC(=O)c1cc(Oc2ccc(NC(=O)Nc3ccc(Cl)c(C(F)(F)F)c3)c(F)c2)ccn1` [regorafenib], the “%-inhibition of PKCβ1” value in test [1] is -7%. The “%-inhibition of EPHB1” value in test [2] (kinase EPHB1, compound at 1 μM) was 76%. Further, in test [3], the “%-inhibition of MLK2” value turned out to be 0.795%. Also, the “%-inhibition of PGK” value in test [4] is given as -7%. Moreover, in test [5], the “%-inhibition of RSK3” value turned out to be 45%. Also, the “%-inhibition of EGFR(d746-750)” value in test [6] (setting [7]) stood at 12%. The “%-inhibition of EGFR(d746-750/T790M)” value in test [6] (setting [8]) was 3.63%. Besides, in test [6] (setting [9]), the “%-inhibition of EML4-ALK” value was -7%. For the same compound, the “%-inhibition of LYNb” value in test [6] (kinase LYNb, compound at 1 μM) was 85%. Further, the “%-inhibition of NPM1-ALK” value in test [6] (kinase NPM1-ALK, 1 μM) is given as -7%. Further, the “%-inhibition of PKCβ2” value in test [6] (kinase PKCβ2, 1 μM) is recorded as -9%. Moreover, in test [6] (kinase SRM, 1 μM), the “%-inhibition of SRM” value was found to be 66%. Moreover, the “%-inhibition of TAK1-TAB1” value in test [6] (kinase TAK1-TAB1, 1 μM) stood at 60%.
Take `N#CC[C@H](C1CCCC1)n1cc(-c2ncnc3[nH]ccc23)cn1` [ruxolitinib]: the “%-inhibition of PKCβ1” value in test [1] is given as 1.35%. In addition, in test [2] (1 µM), the “%-inhibition of EPHB1” value came to 31%. For the same compound, in test [3], the “%-inhibition of MLK2” value is given as 22%. Further, the “%-inhibition of PGK” value in test [4] is reported as 14%. The “%-inhibition of RSK3” value in test [5] is listed as 9%. In test [6], the “%-inhibition of NPM1-ALK” value came out at 65% and the “%-inhibition of TAK1-TAB1” value is 6%. In test [6] (1 µM), the “%-inhibition of EGFR(d746-750)” value is listed as -1.14%, the “%-inhibition of EGFR(d746-750/T790M)” value amounted to 1.32%, the “%-inhibition of EML4-ALK” value is given as 64% and the “%-inhibition of LYNb” value is 8%. Further, in test [6] (1 µM), the “%-inhibition of PKCβ2” value was 5% and the “%-inhibition of SRM” value was 4.69%.
In the case of `CO[C@H]1C[C@@H]2CC[C@@H](C)[C@@](O)(O2)C(=O)C(=O)N2CCCC[C@H]2C(=O)O[C@H]([C@H](C)C[C@@H]2CC[C@@H](OC(=O)C(C)(CO)CO)[C@H](OC)C2)CC(=O)[C@H](C)/C=C(\C)[C@@H](O)[C@@H](OC)C(=O)[C@H](C)C[C@H](C)/C=C/C=C/C=C/1C` [temsirolimus], the “%-inhibition of PKCβ1” value in test [1] is -2%. In addition, in test [2] (kinase EPHB1, compound at 1 μM), the “%-inhibition of EPHB1” value is -1.86%. The “%-inhibition of MLK2” value in test [3] is given as 9%. In test [4], the “%-inhibition of PGK” value is reported as -5.57%. Further, in test [5], the “%-inhibition of RSK3” value is on record as -3%. Moreover, the “%-inhibition of EGFR(d746-750)” value in test [6] (setting [7]) is -3%. Besides, the “%-inhibition of EGFR(d746-750/T790M)” value in test [6] (setting [8]) is on record as -0.33%. The “%-inhibition of EML4-ALK” value in test [6] (setting [9]) is -7%. Further, the “%-inhibition of LYNb” value in test [6] (kinase LYNb, compound at 1 μM) is -10%. Moreover, the “%-inhibition of NPM1-ALK” value in test [6] (kinase NPM1-ALK, 1 μM) is -7.57%. Further, in test [6] (kinase PKCβ2, 1 μM), the “%-inhibition of PKCβ2” value is -1.6%. Moreover, in test [6] (kinase SRM, 1 μM), the “%-inhibition of SRM” value is -4%. Besides, in test [6] (kinase TAK1-TAB1, 1 μM), the “%-inhibition of TAK1-TAB1” value is on record as -3.77%.
For the compound `CC(=O)Nc1cccc(-n2c(=O)n(C3CC3)c(=O)c3c(Nc4ccc(I)cc4F)n(C)c(=O)c(C)c32)c1` [trametinib], the “%-inhibition of PKCβ1” value in test [1] is given as -3.47%. The “%-inhibition of EPHB1” value in test [2] (kinase EPHB1, compound at 1 μM) is given as -8%. Besides, in test [3], the “%-inhibition of MLK2” value was found to be 5%. In addition, in test [4], the “%-inhibition of PGK” value was -1.31%. The “%-inhibition of RSK3” value in test [5] is on record as -5%. Besides, the “%-inhibition of EGFR(d746-750)” value in test [6] (setting [7]) was -2.58%. Further, the “%-inhibition of EGFR(d746-750/T790M)” value in test [6] (setting [8]) was 1.72%. Besides, the “%-inhibition of EML4-ALK” value in test [6] (setting [9]) is recorded as -2.51%. Besides, the “%-inhibition of LYNb” value in test [6] (kinase LYNb, compound at 1 μM) is -2.58%. Moreover, in test [6] (kinase NPM1-ALK, 1 μM), the “%-inhibition of NPM1-ALK” value is reported as -1.79%. Further, in test [6] (kinase PKCβ2, 1 μM), the “%-inhibition of PKCβ2” value is -1.58%. Moreover, in test [6] (kinase SRM, 1 μM), the “%-inhibition of SRM” value is -4%. Besides, in test [6] (kinase TAK1-TAB1, 1 μM), the “%-inhibition of TAK1-TAB1” value is reported as 5.47%.
Consider `COc1cc2c(Nc3ccc(Br)cc3F)ncnc2cc1OCC1CCN(C)CC1` [vandetanib], for which the “%-inhibition of PKCβ1” value in test [1] is -6%. Moreover, the “%-inhibition of EPHB1” value in test [2] (kinase EPHB1, compound at 1 μM) is recorded as 96%. Moreover, the “%-inhibition of MLK2” value in test [3] came to 12%. In addition, the “%-inhibition of PGK” value in test [4] is -3.59%. Further, the “%-inhibition of RSK3” value in test [5] came to 9%. Moreover, in test [6], the “%-inhibition of NPM1-ALK” value is on record as 28% and the “%-inhibition of TAK1-TAB1” value was determined as 6%. Further, in test [6] (1 µM), the “%-inhibition of EGFR(d746-750)” value is recorded as 100%, the “%-inhibition of EGFR(d746-750/T790M)” value is on record as 85%, the “%-inhibition of EML4-ALK” value is 20% and the “%-inhibition of LYNb” value turned out to be 91%. For the same compound, in test [6] (1 µM), the “%-inhibition of PKCβ2” value is -2.13% and the “%-inhibition of SRM” value was determined as 39%.
On to `CCCS(=O)(=O)Nc1ccc(F)c(C(=O)c2c[nH]c3ncc(-c4ccc(Cl)cc4)cc23)c1F` [vemurafenib], for which the “%-inhibition of PKCβ1” value in test [1] was -3.81%. Besides, in test [2] (kinase EPHB1, compound at 1 μM), the “%-inhibition of EPHB1” value is given as -1.63%. The “%-inhibition of MLK2” value in test [3] was 5%. The “%-inhibition of PGK” value in test [4] is given as -4.33%. Moreover, the “%-inhibition of RSK3” value in test [5] is -0.497%. Besides, the “%-inhibition of EGFR(d746-750)” value in test [6] (setting [7]) turned out to be 2.81%. The “%-inhibition of EGFR(d746-750/T790M)” value in test [6] (setting [8]) worked out at 4.62%. In test [6] (setting [9]), the “%-inhibition of EML4-ALK” value is recorded as -1.53%. Also, the “%-inhibition of LYNb” value in test [6] (kinase LYNb, compound at 1 μM) is 62%. Also, the “%-inhibition of NPM1-ALK” value in test [6] (kinase NPM1-ALK, 1 μM) is -1.72%. In addition, the “%-inhibition of PKCβ2” value in test [6] (kinase PKCβ2, 1 μM) is recorded as -3%. Moreover, the “%-inhibition of SRM” value in test [6] (kinase SRM, 1 μM) is 102%. The “%-inhibition of TAK1-TAB1” value in test [6] (kinase TAK1-TAB1, 1 μM) was found to be 9%.
